Here are results for 1 compound from patent publication US20100143241A1, “Method and apparatus for delivery of agents across the blood brain barrier” (priority 2008, published 2010).

SMILES strings stand for the structures.

One data set concerns mouse brain. Nature of the data set: T1 estimation by spin echo MRI in mice given Gd-DTPA with or without BOMUS. The class given is in vivo. As for the experimental part:
(§1) To enhance the brain with MR contrast, Gd-DTPA (Magnevist, Bayer HealthCare Pharmaceuticals, Wayne, N.J.) was administered by intraperitoneal (IP) injection 10 minutes prior to BOMUS (FIG. 14b). […] The Gd-DTPA dose was 3.2, 6.4, or 9.5 mmol/kg, as noted later. After BOMUS, high-throughput MR images were acquired. Because Gd-DTPA is normally excluded by the BBB, opening of the BBB was indicated by contrast-enhancement on T1-weighted MRI.
T1 measurements were performed by acquiring a series of 2D spin echo images with varying TRs: TR=200, 400, 800, 1600, 3200, 6400, or 12800 ms; TE=7 ms; BW=31.25; slice thickness=1 mm; FOV=20×20 mm; matrix=128×128. T1 over a region of interest (ROI) was estimated using a three-parameter non-linear fit of the data to the following equation: I=m(1−[…])+a, where I is the mean ROI intensity and TR is the repetition time. The three terms that were fit were m, a multiplicative constant; a, an additive constant; and T1.
To measure the change in relaxivity due to the Gd-DTPA, T1 was estimated in ROIs selected from the cortex, basal ganglia and muscle (FIG. 21). In the control animal receiving neither Gd-DTPA nor BOMUS, T1 values were long in the cortex (2.08 s), basal ganglia (1.97 s), and muscle (2.01 s). In the animal given only Gd-DTPA, the muscle T1 shortened dramatically (0.71 s); but T1 was only shortened modestly in the cortex (1.53 s) and basal ganglia (1.56 s) because the intact BBB excluded the Gd-DTPA. However, in the BOMUS-treated animal, Gd-DTPA not only shortened T1 in the muscle (0.80 s), but Gd-DTPA also crossed the BBB and dramatically shortened T1 in the cortex (0.50 s) and basal ganglia (0.50 s).

The subject of the next data set is blood-brain barrier. Nature of the data set: T1-weighted MRI contrast enhancement of the mouse brain after BBB opening with microbubbles and unfocused ultrasound. The class given is in vivo. To be noted: for enhancement in CSF and brain parenchyma: Gd-DTPA 6.4 mmol/kg IP.
Description: Magnetic resonance images were acquired of a live mouse using a 7.0 T magnetic resonance system developed for magnetic resonance microscopy. […] IV injection of gadopentetate dimeglumine a standard magnetic resonance contrast agent results in enhancement of the muscles (FIG. 2b) but the brain remains dark. […] However, application of the ultrasound energy with the combination of Definity and gadopentetate dimeglumine opens the blood-brain barrier allowing the gadopentetate dimeglumine to actively stain the brain. Note in FIG. 2d the signal from the actively stained brain is nearly 5× (i.e., 5 fold or 5 times) stronger than it is in the unstained brain in FIG. 2a.
To open the BBB, 30 microliters of perflutren lipid microspheres (activated Definity) were injected through a tail vein catheter and simultaneously the ultrasound pulse sequence was initiated. The ultrasound was applied for 3 minutes.
as §1
For MRI, a 35 mm diameter quadrature transmit/receive volume coil (m2m Imaging Corp., Cleveland, Ohio) was used. The MR system was a 7 T horizontal bore magnet driven by a GE EXCITE console (General Electric Healthcare, Milwaukee, Wis.). MR images were acquired using either a high-throughput or high-resolution protocol. The high-throughput scan (3.2 minutes) used a 3D spoiled gradient recalled (SPGR) sequence with the following parameters: repetition time (TR)=25 ms; echo time (TE)=2 ms; flip angle (FA)=30 degrees; field of view (FOV)=20×20×12 mm; matrix=128×128×60; number of averages (NEX)=1. Data were acquired at a resolution of 156×156×200 micrometers.
High-resolution images were acquired with a similar 51 minute SPGR protocol: TR=25 ms; TE=3-4 ms; FA=15-22 degrees; FOV=20×20×8 mm; matrix=384×384×80; NEX=4. Data were acquired at a resolution of 52×52×100 micrometers.
To determine if the combination of unfocused ultrasound and microbubbles could be used to globally open the BBB, this treatment was compared to a variety of control scenarios (FIG. 16). […] However, co-administration of ultrasound and microbubbles globally opens the BBB, allowing the Gd-DTPA to enhance the brain. Animals received Gd-DTPA 6.4 mmol/kg IP 10 minutes prior to treatment, and T1-weighted images (high-throughput protocol) were acquired 20 minutes after treatment (FIG. 14b).

For data set [1] the following is noted: in vivo; cited from earlier work.
[2] abbreviates: BOMUS-treated animal given Gd-DTPA.
[3] abbreviates: animal given only Gd-DTPA, no BOMUS, intact BBB.
[4] abbreviates: Gd-DTPA along with BOMUS, high-resolution SPGR, left anterior cortex.

On to `CNC[C@H](O)[C@@H](O)[C@H](O)[C@H](O)CO.CNC[C@H](O)[C@@H](O)[C@H](O)[C@H](O)CO.O=C([O-])CN(CCN(CC(=O)[O-])CC(=O)O)CCN(CC(=O)[O-])CC(=O)O.[Gd+3]` [Gd-DTPA, gadopentetate dimeglumine], for which the “T1 in basal ganglia” value in the data set on mouse brain (setting [2]) is 0.50 s; with mouse brain (setting [3]), 1.56 s. Also, the T1 in cortex in the data set on mouse brain (setting [2]) is listed as 0.50 s; in the data set on mouse brain (setting [3]), 1.53 s. In addition, the T1 in muscle with mouse brain (setting [2]) is 0.80 s; in the data set on mouse brain (animal given only Gd-DTPA, no BOMUS), 0.71 s. Moreover, the “T1 of brain after active staining” value in the data set on mouse brain (Gd-DTPA with BOMUS, reduced from approximately 2000 ms) is listed as around 500 ms. Besides, the “enhancement in CSF and brain parenchyma” value in the data set on blood-brain barrier (both ultrasound and microbubbles simultaneously) is “dramatic enhancement in the CSF and brain parenchyma”; with blood-brain barrier (no treatment, only ultrasound, or only microbubbles), “no enhancement in the cerebrospinal fluid (CSF) or in the brain parenchyma”. The “increase in SNR over control mouse receiving no contrast agent” value in the data set on blood-brain barrier (setting [4]) is listed as 90%. Besides, in the data set with blood-brain barrier (setting [4]), the “increase in SNR over mouse receiving only Gd-DTPA” value was 63%. Also, the “time post-injection within which most of the enhancement occurs” value in the data set on blood-brain barrier (IP injection, preliminary studies) is 10 to 15 min. In addition, the “wash-out of brain staining after BOMUS” value in the data set on blood-brain barrier (time-course of T1-weighted signal, up to 27 hours after BOMUS) was “washes out within a day”. Further, the “signal of actively stained brain relative to unstained brain” value in the data set with blood-brain barrier (ultrasound with Definity and gadopentetate dimeglumine, 7.0 T, T1-weighted, FIG. 2) was around 5 ×. Moreover, the half-life in data set [1] was 1.6 h.

Broadly, the half-life is the time needed for the level to fall by half in the phase considered.
